What was measured:
COR-L23 cells = experiment: Autofluorescence luminance ratio (G component/B component) after adding metabolism changing reagent; assay type: cell-based, human; conditions: antimycin A 1 μM where added, incubated an hour after D-glucose removal, FIG. 3
Description: (§1) Human lung cancer cells NCI-H322 (KAC Co., Ltd.) were cultured in a culture medium 103 for cell culture (KAC Co., Ltd.). Human lung cancer cells COR-L23 (KAC Co., Ltd.) were cultured in a culture medium 103 for cell culture (KAC Co., Ltd.). A cell culture vessel was a 35 mm glass bottom dish (IWAKI) for any case. […] The area of a nucleus region was acquired and labelled. […] Average value of G component/Average value of B component was calculated cell by cell and plotted as a box-and-whisker plot (FIG. 3). […] NCI-H322 cells were cultured in a 35 mm glass bottom dish, and COR-L23 cells were cultured in a 35 mm glass bottom dish. […] As negative control, only removal of D-glucose was performed for both NCI-H322 cells and COR-L23 cells to create samples not added with a metabolism changing reagent. An autofluorescence image of each of the samples was captured. Subsequently, nuclear staining and mitochondria staining were performed to stain nuclei and mitochondria, and similarly stained images were captured with an image capturing apparatus.

NCI-H322 cells = experiment: as above; assay type: cell-based, human; conditions: antimycin A 1 μM where added, incubated an hour after D-glucose removal, FIG. 3
Description: as §1

SMILES: O=C[C@H](O)[C@@H](O)[C@H](O)[C@H](O)CO [D-glucose]
- G component/B component of autofluorescence (365 nm excitation/430 nm long pass filter) versus negative control (COR-L23 cells): no significant difference
- G component/B component of autofluorescence (365 nm excitation/430 nm long pass filter) versus negative control (NCI-H322 cells): no significant difference

Source: patent US20240319167A1, “CELL INFORMATION ACQUISITION METHOD, AND PROGRAM” (CANON KABUSHIKI KAISHA, priority 2023, published 2024)
